Measured values as given in ChEMBL document CHEMBL1201862, “PubChem BioAssay data set” (2004).
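Interpolation was linear, between the two tested concentrations surrounding the appropriate level; five concentrations were tested over 48 hours in 96-well plates. GI50 = concentration required for 50% inhibition of growth.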 Calls of active or inactive are those of the source. Rule as the data show it: active = GI50 up to about 1.1 µM and inactive = higher.

Columns and labels:
Experiment in all cases: NCI anticancer screen, dose series, 48 h
BT-549 = tested on: BT-549
EKVX = tested on: EKVX
Hs-578T = tested on: Hs-578T
IGROV-1 = tested on: IGROV-1
KM12 = tested on: KM12
NCI-H460 = tested on: NCI-H460
OVCAR-5 = tested on: OVCAR-5
SF-539 = tested on: SF-539
SNB-19 = tested on: SNB-19
SW-620 = tested on: SW-620
T47D = tested on: T47D
TK-10 = tested on: TK-10
UO-31 = tested on: UO-31
HCC 2998 = tested on: HCC 2998
K562 = tested on: K562
PC-3 = tested on: PC-3
RPMI-8226 = tested on: RPMI-8226

SMILES	GI50 (BT-549)	GI50 (EKVX)	GI50 (Hs-578T)	GI50 (IGROV-1)	GI50 (KM12)	GI50 (NCI-H460)	GI50 (OVCAR-5)	GI50 (SF-539)	GI50 (SNB-19)	GI50 (SW-620)	GI50 (T47D)	GI50 (TK-10)	GI50 (UO-31)	GI50 (HCC 2998)	GI50 (K562)	GI50 (PC-3)	GI50 (RPMI-8226)
CN(C)C(=S)SCc1ccccc1	87.9 µM (inactive)	> 100 µM (inactive)	> 100 µM (inactive)	> 100 µM (inactive)	> 100 µM (inactive)	> 100 µM (inactive)	> 100 µM (inactive)	> 100 µM (inactive)	> 100 µM (inactive)	> 100 µM (inactive)	0.033 µM (active)	> 100 µM (inactive)	53.7 µM (inactive)	–	–	–	–
C[N+](C)(N)c1nc(N)c(C#N)c(C#N)c1C#N	–	> 10 µM (inactive)	> 10 µM (inactive)	> 10 µM (inactive)	–	> 10 µM (inactive)	> 10 µM (inactive)	> 10 µM (inactive)	> 10 µM (inactive)	> 10 µM (inactive)	> 10 µM (inactive)	> 10 µM (inactive)	> 10 µM (inactive)	> 10 µM (inactive)	7.01 µM (inactive)	> 10 µM (inactive)	> 10 µM (inactive)
CC1C/C(=C\c2ccc(O)c(O)c2)C(=O)/C(=C/c2ccc(O)c(O)c2)C1 (stereo not drawn)	–	14.1 µM (inactive)	4.06 µM (inactive)	6 µM (inactive)	8.17 µM (inactive)	12.7 µM (inactive)	17.3 µM (inactive)	3.25 µM (inactive)	10.7 µM (inactive)	11.6 µM (inactive)	4.57 µM (inactive)	25 µM (inactive)	–	18.2 µM (inactive)	5.83 µM (inactive)	14 µM (inactive)	–
S=C(NCc1ccccn1)N/N=C/c1ccccn1	–	< 0.0194 µM (active)	1.14 µM (inactive)	< 0.01 µM (active)	< 0.01 µM (active)	0.0556 µM (active)	< 0.01 µM (active)	< 0.0159 µM (active)	0.726 µM (active)	< 0.01 µM (active)	< 0.01 µM (active)	0.0195 µM (active)	< 0.0331 µM (active)	0.229 µM (active)	< 0.01 µM (active)	< 0.01 µM (active)	< 0.01 µM (active)
O=S(=O)(OI(O)CC(F)(F)F)C(F)(F)F	> 100 µM (inactive)	> 100 µM (inactive)	–	> 100 µM (inactive)	> 100 µM (inactive)	> 100 µM (inactive)	> 100 µM (inactive)	> 100 µM (inactive)	–	> 100 µM (inactive)	> 100 µM (inactive)	> 100 µM (inactive)	> 100 µM (inactive)	> 100 µM (inactive)	> 100 µM (inactive)	> 100 µM (inactive)	> 100 µM (inactive)
Cn1cc(C(=O)c2nccc3c2cnc2ccccc23)ccc1=O	–	> 100 µM (inactive)	> 100 µM (inactive)	–	> 100 µM (inactive)	26.5 µM (inactive)	> 100 µM (inactive)	> 100 µM (inactive)	> 100 µM (inactive)	> 100 µM (inactive)	> 100 µM (inactive)	> 100 µM (inactive)	32.1 µM (inactive)	> 100 µM (inactive)	> 100 µM (inactive)	> 100 µM (inactive)	> 100 µM (inactive)
Brc1sc(Br)c2c1[C@H](Br)C[C@@H]2Br	29 µM (inactive)	> 100 µM (inactive)	26.3 µM (inactive)	26.9 µM (inactive)	44.9 µM (inactive)	27.5 µM (inactive)	> 100 µM (inactive)	19.1 µM (inactive)	–	38.7 µM (inactive)	26.1 µM (inactive)	> 100 µM (inactive)	19.6 µM (inactive)	–	39.4 µM (inactive)	–	–
CC1CN=C(N(C(=O)Nc2ccc(Cl)c(Cl)c2)c2ccccc2)S1 (stereo not drawn)	–	71.1 µM (inactive)	> 100 µM (inactive)	> 100 µM (inactive)	32.1 µM (inactive)	43.4 µM (inactive)	> 100 µM (inactive)	39.4 µM (inactive)	> 100 µM (inactive)	72.1 µM (inactive)	20.2 µM (inactive)	38.9 µM (inactive)	> 100 µM (inactive)	33.6 µM (inactive)	> 10 µM (inactive)	37.8 µM (inactive)	64.9 µM (inactive)
CC1(C)N=C(C2CCCN2C(=O)OCc2ccccc2)OC1=O (stereo not drawn)	> 100 µM (inactive)	–	> 100 µM (inactive)	> 100 µM (inactive)	> 100 µM (inactive)	> 100 µM (inactive)	> 100 µM (inactive)	> 100 µM (inactive)	> 100 µM (inactive)	> 100 µM (inactive)	–	> 100 µM (inactive)	> 100 µM (inactive)	> 100 µM (inactive)	> 100 µM (inactive)	> 100 µM (inactive)	> 100 µM (inactive)
[N-]=[N+]=NCc1cccc(Nc2cc(=O)[nH]c(=O)[nH]2)c1	> 100 µM (inactive)	> 100 µM (inactive)	> 100 µM (inactive)	> 100 µM (inactive)	> 100 µM (inactive)	–	> 100 µM (inactive)	> 100 µM (inactive)	> 100 µM (inactive)	> 100 µM (inactive)	51.2 µM (inactive)	> 100 µM (inactive)	> 100 µM (inactive)	> 100 µM (inactive)	> 100 µM (inactive)	–	> 100 µM (inactive)
CCSc1ncnc2c(C3OC(CO)C(O)C3O)nsc12 (stereo not drawn)	–	> 100 µM (inactive)	> 100 µM (inactive)	> 100 µM (inactive)	–	–	> 100 µM (inactive)	> 100 µM (inactive)	–	> 100 µM (inactive)	> 100 µM (inactive)	–	–	99.1 µM (inactive)	> 100 µM (inactive)	> 100 µM (inactive)	–
Cn1nc(C(=O)N2CC(CCl)c3c2cc(N)c2ccccc32)cc1NC(=O)Nc1cc(C(=O)N2CC(CCl)c3c2cc(N)c2ccccc32)nn1C (stereo not drawn)	0.0718 µM (active)	29 µM (inactive)	–	–	0.948 µM (active)	< 0.01 µM (active)	0.301 µM (active)	0.016 µM (active)	0.0621 µM (active)	0.0271 µM (active)	< 0.01 µM (active)	> 100 µM (inactive)	14.1 µM (inactive)	1.21 µM (inactive)	0.231 µM (active)	0.165 µM (active)	3.3 µM (inactive)
Cc1cc(NC2=NCCO2)c2c(c1C)CCCC2	–	23.6 µM (inactive)	10.8 µM (inactive)	21.8 µM (inactive)	13.2 µM (inactive)	11.7 µM (inactive)	17.1 µM (inactive)	0.0536 µM (active)	11.2 µM (inactive)	27.1 µM (inactive)	13.6 µM (inactive)	33.7 µM (inactive)	1.91 µM (inactive)	15.2 µM (inactive)	–	–	12.6 µM (inactive)
C=CC(Br)(CBr)CCC(Cl)C(C)C (stereo not drawn)	1.6 µM (inactive)	9.66 µM (inactive)	2.58 µM (inactive)	2.5 µM (inactive)	1.47 µM (inactive)	1.88 µM (inactive)	2.44 µM (inactive)	2.31 µM (inactive)	2.2 µM (inactive)	1.69 µM (inactive)	–	1.88 µM (inactive)	1.64 µM (inactive)	< 0.01 µM (active)	1.33 µM (inactive)	3.45 µM (inactive)	0.35 µM (active)
[N-]=[N+]=NCc1nc(N)c2c3c(sc2n1)CCCC3	–	2.1 µM (inactive)	2.72 µM (inactive)	1.2 µM (inactive)	0.979 µM (active)	3.43 µM (inactive)	3.64 µM (inactive)	1.6 µM (inactive)	4.97 µM (inactive)	6.85 µM (inactive)	6.85 µM (inactive)	12.4 µM (inactive)	0.0532 µM (active)	1.84 µM (inactive)	4.22 µM (inactive)	2.04 µM (inactive)	2.19 µM (inactive)
COc1cc(/C=C2\CCC(C)C3=C2N=c2s/c(=C/c4ccc(Cl)cc4)c(=O)n2C3c2cc(OC)c(OC)c(OC)c2)cc(OC)c1OC (stereo not drawn)	–	> 100 µM (inactive)	> 100 µM (inactive)	20.5 µM (inactive)	> 100 µM (inactive)	–	> 100 µM (inactive)	–	> 100 µM (inactive)	> 100 µM (inactive)	–	> 100 µM (inactive)	> 100 µM (inactive)	–	> 100 µM (inactive)	> 100 µM (inactive)	> 100 µM (inactive)
CC(C)C1=CC23CCC4C(C)(C(=O)O)CCCC4(C)C2CC1C1C(=O)N(c2ccc(Cc4ccc(N5C(=O)C6C7CC8C9(C)CCCC(C)(C(=O)O)C9CCC8(C=C7C(C)C)C6C5=O)cc4)cc2)C(=O)C13 (stereo not drawn)	–	6.58 µM (inactive)	10.7 µM (inactive)	–	5.97 µM (inactive)	–	20.8 µM (inactive)	4.16 µM (inactive)	5.85 µM (inactive)	11.4 µM (inactive)	18.1 µM (inactive)	15.6 µM (inactive)	17.1 µM (inactive)	10.1 µM (inactive)	7.87 µM (inactive)	3.78 µM (inactive)	9.14 µM (inactive)
O=c1cccc2n1C[C@H]1CNC[C@H]2C1	> 100 µM (inactive)	> 100 µM (inactive)	> 100 µM (inactive)	–	> 100 µM (inactive)	> 100 µM (inactive)	> 100 µM (inactive)	> 100 µM (inactive)	> 100 µM (inactive)	> 100 µM (inactive)	–	> 100 µM (inactive)	> 100 µM (inactive)	> 100 µM (inactive)	> 100 µM (inactive)	> 100 µM (inactive)	> 100 µM (inactive)
CCCCN=C(OC1C=CCCC1)SC (stereo not drawn)	> 100 µM (inactive)	> 100 µM (inactive)	–	> 100 µM (inactive)	–	> 10 µM (inactive)	> 100 µM (inactive)	–	> 100 µM (inactive)	> 100 µM (inactive)	> 100 µM (inactive)	> 100 µM (inactive)	> 100 µM (inactive)	> 100 µM (inactive)	> 100 µM (inactive)	> 100 µM (inactive)	> 100 µM (inactive)
